Reference: ChEMBL document CHEMBL4813920, “Metronidazole-conjugates: A comprehensive review of recent developments towards synthesis and medicinal perspective” (Eur J Med Chem, 2021)
In brackets after ≈: the same amount, converted by molar mass.

Key:
[1] = Cytotoxicity against human MT4 cells assessed as reduction in cell viability after 5 days by MTT assay; assay type: cell-based; settings: time 5 day
[2] = Selectivity index, ratio of CC50 for cytotoxicity against human MT4 cells to EC50 for antiviral activity against HIV1 3B infected in human MT4 cells; assay type: toxicity, cell-based; settings: read-out: Ratio CC50/EC50
[3] = test system: Human immunodeficiency virus 1; test: Antiviral activity against HIV1 3B infected in human MT4 cells assessed as reduction in virus-induced cell death incubated for 5 days by MTT assay; assay type: functional, organism-based; settings: Human immunodeficiency virus 1, 3B, MT4, 120 h
B16-F10 = test: Antiproliferative activity against mouse B16-F10 cells incubated for 24 to 48 hrs by MTT assay; assay type: functional, cell-based
Entamoeba histolytica [4] = test: Antiamoebic activity against Entamoeba histolytica HM-1:IMSS trophozoites incubated for 2 days under anaerobic condition; assay type: functional, organism-based; settings: 48 h
Giardia intestinalis = test: Antigiardial activity against Giardia intestinalis WB incubated for 2 days under anaerobic condition; assay type: functional, organism-based; settings: Giardia duodenalis, 48 h
Clostridium perfringens = test: Antibacterial activity against Clostridium perfringens ATCC 13124 incubated for 48 hrs under anaerobic condition by MTT assay; assay type: functional
Helicobacter pylori [5] = test: Antibacterial activity against Helicobacter pylori ATCC 26695 incubated for 48 hrs by MTT assay; assay type: functional, organism-based
Helicobacter pylori [6] = test: Antibacterial activity against Helicobacter pylori P12 incubated for 48 hrs by MTT assay; assay type: functional, organism-based
A549 [7] = test: Anticancer activity against human A549 cells assessed as inhibition of cell proliferation at 0.5 uM measured after 48 hrs by CCK8 assay relative to control; assay type: functional
NCI-H446 = test: Anticancer activity against human NCI-H446 cells assessed as inhibition of cell proliferation at 0.5 uM measured after 48 hrs by CCK8 assay relative to control; assay type: functional
A549 [8] = test: Antiproliferative activity against human A549 cells incubated for 24 to 48 hrs by CCK8 assay; assay type: functional, cell-based
HeLa = test: Antiproliferative activity against human Hela cells incubated for 24 to 48 hrs by CCK8 assay; assay type: functional, cell-based
U-251 = test: Antiproliferative activity against human U-251 cells incubated for 24 to 48 hrs by CCK8 assay; assay type: functional, cell-based
HepG2 = test: Antiproliferative activity against human HepG2 cells incubated for 24 to 48 hrs by CCK8 assay; assay type: functional, cell-based
[9] = molecular target: Telomerase reverse transcriptase (Homo sapiens, UniProt O14746); test: Inhibition of telomerase in human SGC-7901 cell extract by TRAP assay
Helicobacter pylori [10] = test: Antimicrobial activity against Helicobacter pylori clinical isolate3 for 3 days by agar dilution method; assay type: functional; settings: clinical isolate3, 72 h, time 3 day
Helicobacter pylori [11] = test: Antimicrobial activity against Helicobacter pylori clinical isolate4 for 3 days by agar dilution method; assay type: functional; settings: clinical isolate4, 72 h, time 3 day
Helicobacter pylori [12] = test: Antimicrobial activity against Helicobacter pylori SS1 clinical isolate2 for 3 days by agar dilution method; assay type: functional; settings: SS1 clinical isolate2, 72 h, time 3 day
Helicobacter pylori [13] = test: Antimicrobial activity against Helicobacter pylori SS1 incubated for 3 days by agar dilution method; assay type: functional; settings: SS1, 72 h, time 3 day
Helicobacter pylori [14] = test: Antimicrobial activity against Helicobacter pylori clinical isolate1 for 3 days by agar dilution method; assay type: functional; settings: clinical isolate1, 72 h, time 3 day
Helicobacter pylori [15] = test: Antimicrobial activity against Helicobacter pylori ATCC 43504 incubated for 3 days by agar dilution method; assay type: functional; settings: NCTC 11637 = CCUG 17874 = ATCC 43504, 72 h, time 3 day
MCF7 = test: cells; settings: Homo sapiens, MCF7, 24 h
HEK293 = test: Cytotoxicity against HEK293 cells after 24 hrs by MTT assay; assay type: cell-based; settings: Homo sapiens, HEK293, 24 h
MDA-MB-231 = test: Antiproliferative activity against human MDA-MB-231 cells after 24 hrs by MTT assay; assay type: functional, cell-based; settings: MDA-MB-231, 24 h
Shigella dysenteriae = test: Antibacterial activity against Shigella dysenteriae by two-fold serial dilution technique; assay type: functional
Staphylococcus aureus = test: Antibacterial activity against Methicillin-resistant Staphylococcus aureus N315 by two-fold serial dilution technique; assay type: functional
Proteus vulgaris [16] = test: Potency index, ratio of Norfloxacin MIC to test compound MIC for antibacterial activity against Proteus vulgaris by two-fold serial dilution technique; assay type: functional
Cyberlindnera jadinii = test: Antifungal activity against Candida utilis by two-fold serial dilution technique; assay type: functional; settings: Williopsis jadinii
Proteus vulgaris [17] = test: Potency index, ratio of Chloromycin MIC to test compound MIC for antibacterial activity against Proteus vulgaris by two-fold serial dilution technique; assay type: functional
Saccharomyces cerevisiae = test: Antifungal activity against Beer yeast by two-fold serial dilution technique; assay type: functional
Proteus vulgaris [18] = test: Antibacterial activity against Proteus vulgaris by two-fold serial dilution technique; assay type: functional
Escherichia coli = test: Antibacterial activity against Escherichia coli DH52 by two-fold serial dilution technique; assay type: functional
Proteus vulgaris [19] = test: Potency index, ratio of Metronidazole MIC to test compound MIC for antibacterial activity against Proteus vulgaris by two-fold serial dilution technique; assay type: functional
Entamoeba histolytica [20] = test: Antiamoebic activity against Entamoeba histolytica HM-1:IMSS trophozoites measured after 72 hrs by microdilution method; assay type: functional, organism-based

Chain of Telomerase reverse transcriptase (O14746 whole entry): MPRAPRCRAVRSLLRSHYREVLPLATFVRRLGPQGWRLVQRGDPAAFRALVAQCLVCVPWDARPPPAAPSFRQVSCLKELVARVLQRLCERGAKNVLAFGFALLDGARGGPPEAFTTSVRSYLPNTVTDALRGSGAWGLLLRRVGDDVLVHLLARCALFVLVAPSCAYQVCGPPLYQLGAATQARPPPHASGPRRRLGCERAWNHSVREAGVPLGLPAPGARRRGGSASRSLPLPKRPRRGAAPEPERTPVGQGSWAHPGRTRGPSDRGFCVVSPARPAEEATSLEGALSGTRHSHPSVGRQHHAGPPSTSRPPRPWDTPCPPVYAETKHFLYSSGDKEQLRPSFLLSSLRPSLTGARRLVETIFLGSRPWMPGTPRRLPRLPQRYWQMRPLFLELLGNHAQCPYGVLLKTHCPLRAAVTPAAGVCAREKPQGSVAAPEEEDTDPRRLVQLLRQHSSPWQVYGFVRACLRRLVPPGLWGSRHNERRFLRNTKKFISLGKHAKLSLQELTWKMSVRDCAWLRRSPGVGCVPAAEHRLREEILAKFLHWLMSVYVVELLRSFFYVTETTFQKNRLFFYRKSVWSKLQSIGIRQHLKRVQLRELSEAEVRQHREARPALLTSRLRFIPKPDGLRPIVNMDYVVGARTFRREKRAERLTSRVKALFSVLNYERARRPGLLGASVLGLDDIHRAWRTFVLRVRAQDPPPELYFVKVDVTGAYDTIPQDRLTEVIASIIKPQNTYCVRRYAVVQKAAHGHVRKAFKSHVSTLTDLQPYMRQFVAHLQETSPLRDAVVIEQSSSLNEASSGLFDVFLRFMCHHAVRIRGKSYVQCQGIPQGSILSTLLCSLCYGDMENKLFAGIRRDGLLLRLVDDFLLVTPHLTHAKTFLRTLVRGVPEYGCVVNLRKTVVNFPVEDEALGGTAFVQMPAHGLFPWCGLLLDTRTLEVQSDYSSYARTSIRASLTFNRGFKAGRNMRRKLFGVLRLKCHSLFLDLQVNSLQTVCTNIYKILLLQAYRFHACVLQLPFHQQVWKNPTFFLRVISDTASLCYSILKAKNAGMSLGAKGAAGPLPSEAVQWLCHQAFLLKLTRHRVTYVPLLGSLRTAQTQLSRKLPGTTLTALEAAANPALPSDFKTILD

`Cc1ncc([N+](=O)[O-])n1CCSc1ccccc1` gave a CC50 at 120 h [1] of 24800 nM, a selectivity ratio [2] of 11 and an EC50 [3] of 2230 nM.

Work on `Cc1ccnc(NS(=O)(=O)c2ccc(/N=C\c3ccc(OCCn4c([N+](=O)[O-])cnc4C)cc3)cc2)n1` yielded an IC50 (B16-F10) of 220 nM.

`Cc1cc(C)nc(NS(=O)(=O)c2ccc(/N=C\c3ccc(OCCn4c([N+](=O)[O-])cnc4C)cc3)cc2)n1` showed an IC50 (B16-F10) of 190 nM.

For `Cc1ncc([N+](=O)[O-])n1CCn1cc(CN2C(=O)C(=C3OCCO3)c3cc(Br)ccc32)nn1`, the IC50 (Entamoeba histolytica [4]) was 1500 nM and the IC50 (Giardia intestinalis) was 800 nM.

For `Cc1ccc(C(C)C)cc1OC(=O)Cn1c([N+](=O)[O-])cnc1C`, the MIC (Clostridium perfringens) was 0.0094 µM (≈ 0.00298 µg/mL), the IC50 (Helicobacter pylori [5]) was 52.35 uM/ml and the IC50 (Helicobacter pylori [6]) was 35.17 uM/ml.

`COc1cc2c(Nc3ccc(Br)cc3F)ncnc2cc1OCC1CCN(C(=O)Cn2cncc2[N+](=O)[O-])CC1` gave an inhibition at 0.5 µM (A549 [7]) of 62% and an inhibition at 0.5 µM (NCI-H446) of 59.9%.

For `O=C(OCCn1c([N+](=O)[O-])cnc1/C=C/c1ccc2ccccc2c1)c1nccc2ccccc12`, the IC50 (A549 [8]) was 110 nM, the IC50 (HeLa) was 50 nM and the IC50 (U-251) was 320 nM. For the same compound, the IC50 (HepG2) was 100 nM and the IC50 [9] was 980 nM.

For `CC1(C)S[C@@H]2[C@H](NC(=O)[C@H](N)c3ccc(O)cc3)C(=O)N2[C@H]1C(=O)O` [AMOXICILLIN], the MIC (Helicobacter pylori [10]) was 1.07 µM (≈ 0.391 µg/mL), the MIC (Helicobacter pylori [11]) was 1.07 µM (≈ 0.391 µg/mL) and the MIC (Helicobacter pylori [12]) was 1.07 µM (≈ 0.391 µg/mL). It also gave an MIC (Helicobacter pylori [13]) of 0.14 µM (≈ 0.0512 µg/mL), an MIC (Helicobacter pylori [14]) of 1.07 µM (≈ 0.391 µg/mL) and an MIC (Helicobacter pylori [15]) of 0.14 µM (≈ 0.0512 µg/mL).

`Cc1ncc([N+](=O)[O-])n1Cc1cn(CCCCN2C(=O)C(=O)c3cc(Cl)ccc32)nn1` showed an IC50 (MCF7) of 54200 nM, an IC50 (HEK293) of over 100000 nM and an IC50 (MDA-MB-231) of 26100 nM.

For `Cc1ncc([N+](=O)[O-])n1CCOc1ccc(C(=O)Cc2ccc([N+](=O)[O-])cc2)c(O)c1O`, the MIC (Helicobacter pylori [10]) was 1.76 µM (≈ 0.779 µg/mL), the MIC (Helicobacter pylori [11]) was 1.76 µM (≈ 0.779 µg/mL) and the MIC (Helicobacter pylori [12]) was 0.88 µM (≈ 0.389 µg/mL). The MIC (Helicobacter pylori [13]) was 1.76 µM (≈ 0.779 µg/mL), the MIC (Helicobacter pylori [14]) was 1.76 µM (≈ 0.779 µg/mL) and the MIC (Helicobacter pylori [15]) was 1.76 µM (≈ 0.779 µg/mL).

Work on `CCNc1ccc2c3c(cccc13)C(=O)N(CC(O)Cn1c([N+](=O)[O-])cnc1C)C2=O` (configuration not stated) yielded an MIC (Shigella dysenteriae) of 10 µM (≈ 4.23 µg/mL), an MIC (Staphylococcus aureus) of 40 µM (≈ 16.9 µg/mL) and a Ratio (Proteus vulgaris [16]) of 10. It also gave an MIC (Cyberlindnera jadinii) of 20 µM (≈ 8.47 µg/mL), a Ratio (Proteus vulgaris [17]) of 50 and an MIC (Saccharomyces cerevisiae) of 10 µM (≈ 4.23 µg/mL). It also gave an MIC (Proteus vulgaris [18]) of 2 µM (≈ 0.847 µg/mL), an MIC (Escherichia coli) of 40 µM (≈ 16.9 µg/mL) and a Ratio (Proteus vulgaris [19]) of 95.

`CN(C)c1ccc(/C=C/c2ncc([N+](=O)[O-])n2CCOC(=O)c2nccc3ccccc23)cc1` gave an IC50 (A549 [8]) of 170 nM, an IC50 (HeLa) of 120 nM and an IC50 (U-251) of 430 nM. For the same compound, the IC50 (HepG2) was 140 nM and the IC50 [9] was 1920 nM.

Work on `Cc1ncc([N+](=O)[O-])n1CCOC(=O)Nc1ccc(OS(=O)(=O)c2ccc(C(F)(F)F)cc2)cc1` yielded an IC50 (Entamoeba histolytica [20]) of 240 nM.
